Measurements taken from US12686691B2, “Crystalline form of SHP2 inhibitor, and composition thereof, preparation method therefor, and use thereof” (ETERN BIOPHARMA (SHANGHAI) CO., LTD., priority 2020, dated 2026).

Tests used:
Format in all cases: physicochemical
[1] = Variable temperature XRPD (heating under nitrogen protection, XRPD after cooling)
Procedure: (§1) Instruments and Experimental Conditions Used in the Example • 1. Differential Scanning Calorimeter, DSC • Instrument model: Mettler Toledo DSC3+Stare e System • Purge gas: nitrogen (50 mL/min) • Ramping rate: 10.0° C./min • Temperature range: 20-250° C. • 2. X-Ray Powder Diffraction, XRPD • Instrument model: Rigaku UltimalV X-ray powder diffractometer • Ray: monochromatic Cu—Kα ray (λ=1.5418 Å) • Scanning mode: θ/2θ, scanning range: 3-45° • Voltage: 40 kV, current: 40 mA • 3. Thermogravimetric Analysis, TGA • Instrument model: Mettler Toledo TGA2STAR eSystem • Purge gas: nitrogen • Ramping rate: 10.0° C./min • Temperature range: 20-250° C. • 4. Dynamic Vapour Sorption, DVS • Instrument model: TAQ5000VSA • Temperature: 25° C. • Solvent: water • Humidity change: 0-95-0-95-0% RH, step by 10%, less than 0.01% of mass change within […] as the judging standard • 4. HPLC Method • Instrument model: Agilent 1100 with VWD detector • Columns: poroshell 120 EC C18, 3.0 mm/50 mm/2.7 μm • Mobile phase: A: 0.03% NH4OH (25%~28%) in water • B: 0.03% NH4OH (25%~28%) in acetonitrile
The crystalline form A of Compound 1 was placed under nitrogen protection and heated to different temperatures (30° C., 92° C., 118° C., 132° C. and 175° C., respectively), then subjected to XRPD test after it was cooled.
The crystalline form B of Compound 1 was placed under nitrogen protection and heated to different temperatures (130° C. and 180° C., respectively), then subjected to XRPD test after it was cooled to room temperature.
The crystalline form C of Compound 1 was placed under nitrogen protection and heated to different temperatures (130° C. and 160° C., respectively), then subjected to XRPD test after it was cooled to room temperature.
The crystalline form D of Compound 1 was placed under nitrogen protection and heated to different temperatures (100° C. and 160° C., respectively), then subjected to XRPD test after it was cooled to room temperature.
The crystalline form E of Compound 1 was placed under nitrogen protection and heated to different temperatures (96° C. and 180° C., respectively), then subjected to XRPD test after it was cooled to room temperature.

[2] = Stability investigation of the crystalline form A (placement under temperature/humidity, XRPD and HPLC); settings: for Crystalline form change: XRPD; for HPLC purity initial: before placement
Procedure: as §1
• Mobile Phase Flow Rate: 1.0 mL/min • Run time: 10.0 min • Injection volume: 2 μL • Detecting wavelength: UV, 254 nm • Column temperature: 25° C. • Injector temperature: RT • Diluent: acetonitrile:water=1:1 (v:v)
The crystalline form A of Compound 1 was placed under 60° C./closed condition for 24 hours, under 25° C./60% RH and 40° C./75% RH in an open state for one week, respectively. The physical and chemical stability of the sample was detected by XRPD and HPLC.

DVS hygroscopicity test = test: DVS hygroscopicity test
Procedure: as §1
Hygroscopicity of the crystalline form A of Compound 1 was evaluated by DVS test.

[3] = 40° C./75% RH, 1 week, open state
[4] = heated to 130° C. under nitrogen
[5] = heated to 180° C. under nitrogen
[6] = heated to 160° C. under nitrogen

## Nc1nccc(Sc2cnc(N3CCC4(CC3)Cc3ncccc3[C@H]4N)n3ccnc23)c1Cl [crystalline form A, (S)-1′-(8-((2-amino-3-chloropyridin-4-yl)thio)imidazo[1,2-c]pyrimidin-5-yl)-5,7-dihydrospiro[cyclopentadieno[b]pyridine-6,4′-piperidine]-5-amine]
[1]; heated to 30° C., 92° C., 118° C., 132° C. and 175° C. under nitrogen, XRPD after cooling
  crystalline form change during heating: no crystalline form change
[2]; 25° C./60% RH, 1 week
  HPLC purity After placement: 97.99 area %
  HPLC purity Relative to initial: 99.6%
  Crystalline form change: no crystalline form change
[2]; 25° C./60% RH, 1 week, listed as Crystalline form A
  Crystalline form change: no
[2]; [3]
  HPLC purity After placement: 97.89 area %
  HPLC purity Relative to initial: 99.5%
  Crystalline form change: only part of crystalline form A was converted to hydrate crystalline form B
[2]; 40° C./75% RH, 1 week, open state, listed as Crystalline form A
  Crystalline form change: yes
[2]; 60° C./closed, 24 hours
  HPLC purity After placement: 98.55 area %
  HPLC purity Relative to initial: 99.9%
  Crystalline form change: no crystalline form change
[2]; 60° C./closed, 24 hours, listed as Crystalline form A
  Crystalline form change: no
[2]; all three stability test conditions
  chemical stability (HPLC): good chemical stability
[2]; all three stability test conditions (25° C./60% RH 1 week, 40° C./75% RH 1 week, 60° C./closed 24 hours)
  purity maintained after placement (HPLC): about 98%
[2]; sample of the 25° C./60% RH and 40° C./75% RH 1 week tests
  HPLC purity initial: 98.41 area %
[2]; sample of the 60° C./closed 24 hours test
  HPLC purity initial: 98.60 area %
[2]; conclusion from Examples 1.67 and 1.68
  stability (overall conclusion of the stability investigation): excellent stability
DVS hygroscopicity test; DVS, 80.0% RH, 25° C.
  weight gain of moisture absorption: 1.88%
DVS hygroscopicity test; DVS, judged from weight gain at 80.0% RH
  hygroscopicity: slight hygroscopicity
DVS hygroscopicity test; XRPD before and after DVS
  crystalline form before and after DVS test (XRPD): consistent

## Nc1nccc(Sc2cnc(N3CCC4(CC3)Cc3ncccc3[C@H]4N)n3ccnc23)c1Cl [crystalline form B, (S)-1′-(8-((2-amino-3-chloropyridin-4-yl)thio)imidazo[1,2-c]pyrimidin-5-yl)-5,7-dihydrospiro[cyclopentadieno[b]pyridine-6,4′-piperidine]-5-amine]
[1]; [4]
  crystalline form after heating and cooling to room temperature: converted into an amorphous form
[1]; [5]
  crystalline form after heating and cooling to room temperature: converted to the crystalline form A

## Nc1nccc(Sc2cnc(N3CCC4(CC3)Cc3ncccc3[C@H]4N)n3ccnc23)c1Cl [crystalline form C, (S)-1′-(8-((2-amino-3-chloropyridin-4-yl)thio)imidazo[1,2-c]pyrimidin-5-yl)-5,7-dihydrospiro[cyclopentadieno[b]pyridine-6,4′-piperidine]-5-amine]
[1]; [4]
  crystalline form after heating and cooling to room temperature: converted into an amorphous form
[1]; [6]
  crystalline form after heating and cooling to room temperature: converted to the crystalline form A

## Nc1nccc(Sc2cnc(N3CCC4(CC3)Cc3ncccc3[C@H]4N)n3ccnc23)c1Cl [crystalline form D, (S)-1′-(8-((2-amino-3-chloropyridin-4-yl)thio)imidazo[1,2-c]pyrimidin-5-yl)-5,7-dihydrospiro[cyclopentadieno[b]pyridine-6,4′-piperidine]-5-amine]
[1]; heated to 100° C. under nitrogen
  crystalline form after heating and cooling to room temperature: crystallinity was significantly reduced
[1]; [6]
  crystalline form after heating and cooling to room temperature: diffraction signal of the crystalline form A is observed

## Nc1nccc(Sc2cnc(N3CCC4(CC3)Cc3ncccc3[C@H]4N)n3ccnc23)c1Cl [crystalline form E, (S)-1′-(8-((2-amino-3-chloropyridin-4-yl)thio)imidazo[1,2-c]pyrimidin-5-yl)-5,7-dihydrospiro[cyclopentadieno[b]pyridine-6,4′-piperidine]-5-amine]
[1]; heated to 96° C. under nitrogen
  crystalline form after heating and cooling to room temperature: a small amount of diffraction signal of the crystalline form A is observed
[1]; [5]
  crystalline form after heating and cooling to room temperature: completely converted to the crystalline form A
